# Patent publication US12568982B2, “Systems for retaining potency in an infused beverage” (Vertosa Inc., priority 2020, dated 2026)
# Legend:
# Type in all cases: physicochemical
# [1] = Water-soluble antioxidant standard protocol, THC potency decay at 40° C.; conditions: for THC potency loss at 10 weeks with combined antioxidants: Polysorbate Emulsion 1
# Experimental: The study was done with standard protocol: 20 mg THC nanoemulsion was diluted in 12 oz purified water into an amber glass bottle which was finished with a crown cap. The nanoemulsion was produced using polysorbate as an emulsifier with 50 nm droplet size (See Emulsion 1 from Table 3). The pH of the solution was adjusted to 4.0. The water-soluble antioxidants were added into the final solution at 0.005% (50 ppm).
# All the testing above was based on the THC nanoemulsion made with polysorbate as an emulsifier (see Emulsion 1 from Table 3). Two other THC emulsions were produced with polyglycerol and Q-Naturale (see Emulsion 3 and 4 from […]).
# The three oil soluble antioxidants were all targeted at 0.01% (100 ppm).
# [2] = Terpene oxidation with ascorbic acid or EDTA at 40° C.
# Excerpt: However, nearly all terpenes can be oxidized and some can oxidize faster than others. When terpenes are put into a ready-to-drink beverage, the chemical degradation that can be caused by oxidation needs to be considered. When the oxidation happens, it not only diminishes the designed effect of the product, but it also creates unknown by-products that can be potentially harmful to consume. Oxidation rate of α-pinene and limonene was compared with the addition of ascorbic acid and EDTA.
# [3] = Contact angle of liquids on aluminum can liner (hydrophobicity study); conditions: Krüss contact angle machine; flattened liner side of aluminum can
# Experimental: For hydrophobicity studies, a Krüss contact angle machine was used. An aluminum can was cut in half, and the flattened liner side was used as the testing surface. The contact angle of water, coconut oil, coconut oil+THC at different ratios, and coconut oil+CBD at different ratios on the liner was measured.
# [4] = Oil-phased versus water-phased antioxidants, THC potency loss at 40° C.; conditions: polysorbate emulsion, antioxidant 0.01%, glass bottle with crown cap
# Excerpt: There are two major types of antioxidants depending on their solubility: oil-phased antioxidants and water-phased antioxidants. The oil-phased antioxidants usually exist within the emulsion droplet and water-phased antioxidants are usually added during beverage production. It was believed that both types of antioxidants should work since they follow similar mechanisms: both function as a sacrificial agent to be oxidized prior to oxidation of the API, or they function as chelating agents where they scavenge the metal ions that catalyze oxidation. […] An emulsion was produced using polysorbate, shown as Emulsion 1 in Table 3. The antioxidant concentration was targeted at 0.01%.
# [5] = THC potency loss in glass bottle with child-resistant cap at room temperature
# Excerpt: The concentration of the antioxidant was studied to ensure the antioxidant will last long enough to protect against THC degradation.
# [6] = 20 mg THC polysorbate nanoemulsion in 12 oz water, pH 4.0, amber glass, 40° C., antioxidant 0.005% (50 ppm)
# [7] = oil-soluble antioxidant at 100 ppm + 10 ppm EDTA
# [8] = oil-soluble antioxidant at 100 ppm + 50 ppm Ascorbic Acid
compound,measurement,setting,value
O=C(O)c1cc(O)c(O)c(O)c1 [Gallic acid],THC loss at 4 weeks,[1]; [6],10%
same,THC loss at 10 weeks,[1]; [6],27%
CC1=CCC2CC1C2(C)C (stereo not drawn) [α-pinene],2-weeks potency loss at 40° C.,[2]; 10 ppm EDTA,6%
same,2-weeks potency loss at 40° C.,[2]; 50 ppm ascorbic acid,4%
same,2-weeks potency loss at 40° C.,[2]; No antioxidant,57%
"CCCOC(=O)c1cc(O)c(O)c(O)c1 [Propyl Gallate, propyl gallate]",THC potency loss at 10 weeks with combined antioxidants,[1]; [7],6%
same,THC potency loss at 10 weeks with combined antioxidants,[1]; [8],7%
C=C(C)[C@H]1CC=C(C)CC1 [limonene],2-weeks potency loss at 40° C.,[2]; 10 ppm EDTA,8%
same,2-weeks potency loss at 40° C.,[2]; 50 ppm ascorbic acid,7%
same,2-weeks potency loss at 40° C.,[2]; No antioxidant,68%
C=CC(C)(O)CCC=C(C)C (stereo not drawn) [linalool],2-weeks potency loss at 40° C.,[2]; 10 ppm EDTA,9%
same,2-weeks potency loss at 40° C.,[2]; 50 ppm ascorbic acid,6%
same,2-weeks potency loss at 40° C.,[2]; No antioxidant,46%
C=CC(=C)CCC=C(C)C [myrcene],2-weeks potency loss at 40° C.,[2]; 10 ppm EDTA,6%
same,2-weeks potency loss at 40° C.,[2]; 50 ppm ascorbic acid,3%
same,2-weeks potency loss at 40° C.,[2]; No antioxidant,38%
O [Water],Contact Angle on Liner,[3],85°
tocopherol [Vitamin E (tocopherol)],THC loss at 4 weeks,[4],25%
same,THC loss at 10 weeks,[4],46%
same,THC potency loss at 10 weeks with combined antioxidants,[1]; [7],7%
same,THC potency loss at 10 weeks with combined antioxidants,[1]; [8],6%
"CCCCCc1cc(O)c2c(c1)OC(C)(C)[C@@H]1CCC(C)=C[C@@H]21 [THC, Tetrahydrocannabinol]",THC potency loss %,"[5]; No antioxidant, 6 months at room temperature, child resistant cap type 1",56%
same,THC potency loss %,"[5]; No antioxidant, 12 months at room temperature, child resistant cap type 1",78%
"O=C(O)CN(CCN(CC(=O)O)CC(=O)O)CC(=O)O [EDTA, Ethylenediaminetetraacetic acid]",THC potency loss %,"[5]; EDTA 5 ppm, 6 months at room temperature",16%
same,THC potency loss %,"[5]; EDTA 5 ppm, 12 months at room temperature",39%
same,THC potency loss %,"[5]; EDTA 10 ppm, 6 months at room temperature",8%
same,THC potency loss %,"[5]; EDTA 10 ppm, 12 months at room temperature",12%
same,THC potency loss %,"[5]; EDTA 20 ppm, 6 months at room temperature",6%
same,THC potency loss %,"[5]; EDTA 20 ppm, 12 months at room temperature",9%
"O=C1O[C@H]([C@@H](O)CO)C(O)=C1O [Ascorbic Acid, ascorbic acid]",THC loss at 10 weeks,[4],17%
same,THC potency loss %,"[5]; Ascorbic acid 20 ppm, 6 months at room temperature",21%
same,THC potency loss %,"[5]; Ascorbic acid 20 ppm, 12 months at room temperature",35%
same,THC potency loss %,"[5]; Ascorbic acid 50 ppm, 6 months at room temperature",7%
same,THC potency loss %,"[5]; Ascorbic acid 50 ppm, 12 months at room temperature",10%
same,THC potency loss %,"[5]; Ascorbic acid 200 ppm, 6 months at room temperature",3%
same,THC potency loss %,"[5]; Ascorbic acid 200 ppm, 12 months at room temperature",7%
